Several values for one entry are separate records, joined by “and”; a condition that tells them apart may be missing. Identical values can stand only once.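 Briefly, cells in 96-well plates were exposed to five compound concentrations for 48 h, and endpoints were estimated by linear interpolation. Abbreviation: GI50, concentration required for 50% inhibition of growth. TGI marks complete inhibition of growth.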
Tests used:
Test in all cases: NCI anticancer screen, dose series, 48 h
HOP-18 NSCLC = system: HOP-18 NSCLC
SK-OV-3 ovarian = system: SK-OV-3 ovarian
MOLT-4 leukemia = system: MOLT-4 leukemia
RXF 393 renal = system: RXF 393 renal
HOP-62 NSCLC = system: HOP-62 NSCLC
EKVX NSCLC = system: EKVX NSCLC
UO-31 renal = system: UO-31 renal
M19-MEL melanoma = system: M19-MEL melanoma
HT29 colon = system: HT29 colon
HOP-92 NSCLC = system: HOP-92 NSCLC

Compound	TGI (HOP-18 NSCLC) [µM]	TGI (SK-OV-3 ovarian)	TGI (MOLT-4 leukemia)	TGI (RXF 393 renal)	TGI (HOP-62 NSCLC)	TGI (EKVX NSCLC)	TGI (UO-31 renal)	TGI (M19-MEL melanoma) [µM]	TGI (HT29 colon)	GI50 (SK-OV-3 ovarian)	GI50 (MOLT-4 leukemia)	GI50 (RXF 393 renal)	GI50 (HOP-62 NSCLC)	GI50 (HT29 colon)	GI50 (HOP-92 NSCLC)	TGI (HOP-92 NSCLC)	GI50 (EKVX NSCLC)	GI50 (UO-31 renal)
COc1ncn(C2C=C(CO)C(O)C2O)c(=O)n1 (centres undefined)	> 100	> 100 µM	> 100 µM	> 100 µM	> 100 µM	> 100 µM	> 100 µM	–	–	–	–	–	–	–	–	–	–	–
O=C1/C=C(/c2ccc(O)cc2)[C@H](O)Cc2ccc(OC3OC(CO)C(O)C(O)C3O)cc2O1 (some centres undefined) (tested in a mixture with another compound)	–	> 100 µM	–	–	> 100 µM	> 100 µM	> 100 µM	> 100	> 100 µM	–	–	–	–	–	–	–	–	–
Cc1cc(C)c(-c2noc(-c3ccc(Cl)cc3)c2C2=NCCN2)c(C)c1	> 100	> 100 µM	41.3 µM	45.1 µM	62 µM	71.8 µM	46.9 µM	> 100	34.2 µM	–	–	–	–	–	–	–	–	–
COc1ccccc1NC(=O)CC(=O)NNCC(=O)Nc1nc(-c2ccccc2)cs1	> 100	> 100 µM	> 100 µM	> 100 µM	> 100 µM	> 100 µM	–	> 100	> 100 µM	–	–	–	–	–	–	–	–	–
CC(C)CCC[C@@H](C)C1CCC2[C@@H]3CC=C4C[C@@H](OC(=O)CCC(=O)NCC[N+](C)(C)CCCS(=O)(=O)[O-])CC[C@]4(C)C3CC[C@@]21C (some centres undefined)	97.2	> 100 µM	39.7 µM	24.2 µM	33.9 µM	79.5 µM	> 100 µM	33.4	80.3 µM	–	–	–	–	–	–	–	–	–
C=CC[n+]1c(/C=C2\Sc3ccccc3N2C)sc(-c2ccccc2)c1-c1ccccc1	–	0.92 µM	4.29 µM	8.94 µM	4.75 µM	12.9 µM	4.4 µM	–	6.1 µM	0.296 µM	0.431 µM	0.519 µM	0.302 µM	0.306 µM	0.155 µM	0.571 µM	0.478 µM	1.61 µM
Nc1ncnc2c1ncn2C1OC(CO)C(O)C1O (centres undefined)	> 399	> 450 µM	> 450 µM	> 100 µM and 290 µM and 64.1 µM	> 100 µM and 184 µM and 47.9 µM	> 100 µM and 152 µM and > 84.3 µM	> 450 µM	> 450	> 450 µM	> 100 µM and 296 µM and 34 µM	> 100 µM and 201 µM	22.5 µM	11.7 µM	–	–	–	> 100 µM and 48.3 µM and 17 µM	–
c1cc(C2O[C@H]3CCCN3[C@@H]2c2ccncc2)ccn1 (some centres undefined)	–	> 100 µM	> 100 µM	> 100 µM	> 100 µM	> 100 µM	> 100 µM	> 100	> 100 µM	–	–	–	–	–	–	–	–	–
CC(C)(C)NC(=O)C12C3C4C1C1C2C3C41I (centres undefined)	–	–	> 100 µM	–	–	–	> 100 µM	> 100	> 100 µM	–	–	–	–	–	–	> 100 µM	–	–
COc1ccc(CNCCN2C(=O)c3ccc4c5c(ccc(c35)C2=O)C(=O)N(CCNCc2ccc(OC)cc2)C4=O)cc1	–	2.37 µM	0.92 µM	0.981 µM	1.99 µM	1.73 µM	1.98 µM	–	0.403 µM	1.13 µM	0.282 µM	0.225 µM	0.579 µM	0.122 µM	0.788 µM	2.68 µM	0.455 µM	0.501 µM
CC(=O)NC1=NC(=O)/C(=C/c2ccc(Cl)cc2Cl)N1C	–	> 100 µM	81.4 µM	> 100 µM	> 100 µM	50.7 µM	> 100 µM	–	> 100 µM	–	–	–	–	–	–	> 100 µM	–	–
OCCOCn1nc(-c2ccccc2)nc1-c1cnccn1	–	> 100 µM	> 100 µM	> 100 µM	> 100 µM	> 100 µM	> 100 µM	–	> 100 µM	–	–	–	–	–	–	> 100 µM	–	–
COc1ccc(-n2cc(-c3ccc(Cl)cc3)[nH]c2=S)cc1Cl	–	52.6 µM	> 100 µM	54.1 µM	92.2 µM	> 100 µM	47.8 µM	–	> 100 µM	23.6 µM	43 µM	25.6 µM	32.4 µM	74.2 µM	17.2 µM	43.5 µM	42.8 µM	19.1 µM
CCOc1cccc2cccnc12	> 100	> 100 µM	> 100 µM	> 100 µM	> 100 µM	> 100 µM	> 100 µM	–	> 100 µM	–	–	–	–	–	–	> 100 µM	–	–
CCC(C)CNC1=C(NC(C)=O)C(=O)c2ccccc2C1=O (centres undefined)	–	> 100 µM	> 100 µM	> 100 µM	> 100 µM	> 100 µM	> 100 µM	42.6	> 100 µM	–	–	–	–	–	–	–	–	–
COC1=CC(=O)c2c(O)c3c(c(O)c2C1=O)CC(C)(O)OC3 (centres undefined)	–	58.9 µM	8.68 µM	16.5 µM	12.7 µM	18.7 µM	15.2 µM	–	11.6 µM	–	–	–	–	–	–	10.5 µM	–	–
CC([C@H]1CCC2C3CCC4C(=O)C(NC=O)=CC[C@]4(C)C3CC[C@@]21C)N(C)C (some centres undefined)	–	12.9 µM	10.2 µM	16.6 µM	4.56 µM	50.7 µM	7.4 µM	–	2.37 µM	4.03 µM	2.55 µM	4.66 µM	2.01 µM	0.505 µM	4.64 µM	12.7 µM	3.01 µM	1.98 µM
COC(=O)c1ccc2n[se]nc2c1	> 100	> 100 µM	> 100 µM	> 100 µM	> 100 µM	> 100 µM	> 100 µM	> 100	> 100 µM	–	–	–	–	–	–	–	–	–
CN1CCN(c2nc(C3=C(c4c[nH]c5ccccc45)C(=O)NC3=O)c3ccccc3n2)CC1	–	65 µM and 45.9 µM	35.9 µM and 54.8 µM	22.6 µM and 31.2 µM	65 µM and 42.9 µM	65 µM	65 µM and 30.1 µM	–	65 µM and 43.4 µM	19.5 µM and 16.2 µM	7.61 µM and 10.2 µM	12.8 µM and 16.3 µM	13.6 µM and 19.8 µM	14 µM and 12.3 µM	30.5 µM and 4.23 µM	65 µM and 17.4 µM	20.4 µM	8.2 µM and 11.7 µM
Cc1cc(C)c2nc(Nc3nc(C)c(C)c(=O)[nH]3)nc(C)c2c1	–	10.3 µM	9.37 µM	7.55 µM	8.82 µM	10.9 µM	5.86 µM	–	6.04 µM	2.5 µM	2.35 µM	2.39 µM	1.96 µM	2.25 µM	2.48 µM	9.11 µM	2.58 µM	1.82 µM
COC(=O)c1ccc2c(c1)[n+](=O)c(C(C)=O)c(C(F)(F)F)n2[O-]	–	4.48 µM	17.6 µM	3.86 µM	3.69 µM	4.35 µM	3.15 µM	–	3.25 µM	2.22 µM	2.95 µM	2.04 µM	1.94 µM	1.73 µM	1.48 µM	3.14 µM	1.94 µM	1.71 µM
Nc1nc(Cl)cc2c1ncn2C1OC(CO)C(O)C1O (centres undefined)	–	> 100 µM	> 100 µM	> 100 µM	> 100 µM	> 100 µM	> 100 µM	–	> 100 µM	> 100 µM	> 100 µM	> 100 µM	> 100 µM	> 100 µM	> 100 µM	> 100 µM	> 100 µM	> 100 µM
CC(=O)c1c[nH]c2ccc(-c3ccnc(Nc4ccc(NC(=O)c5cccc(F)c5)c(CN5CCOCC5)c4)n3)cc12	–	> 100 µM	> 100 µM	0.054 µM	18.7 µM	1.52 µM	1.75 µM	–	–	0.562 µM	0.262 µM	0.0221 µM	0.221 µM	0.146 µM	0.154 µM	1.17 µM	0.239 µM	0.0961 µM
O=C(O)CSc1ccn(Cc2ccccc2)c1	–	> 100 µM	> 100 µM	> 100 µM	> 100 µM	> 100 µM	> 100 µM	–	> 100 µM	–	–	–	–	–	–	> 100 µM	–	–
COC(=O)C1=C(SC)SC2(C(=O)OC)C3C=C(C)C4C(N13)C42C(=O)OC (centres undefined)	–	> 100 µM	> 100 µM	> 100 µM	> 100 µM	> 100 µM	> 100 µM	> 100	> 100 µM	–	–	–	–	–	–	–	–	–
CC1=NN(C(=O)CC(=O)Nc2ccccc2)C(=O)C1N=Nc1ccc(S(N)(=O)=O)cc1 (centres undefined)	> 100	> 100 µM	> 100 µM	> 100 µM	> 100 µM	> 100 µM	> 100 µM	–	> 100 µM	–	–	–	–	–	–	> 100 µM	–	–
COc1cccc(-n2cnc3c(N/N=C/c4ccncc4)ncnc32)c1	–	> 23.7 µM	> 25 µM	> 25 µM	> 25 µM	> 25 µM	> 25 µM	–	> 25 µM	7.88 µM	> 25 µM	6.42 µM	> 25 µM	8.07 µM	> 10.4 µM	> 25 µM	> 25 µM	8.26 µM
COC(=O)C1=C(O)C(C(=O)OC)[C@@]2(O)[C@@H](C(=O)OC)C(c3ccccc3C(F)(F)F)C[C@@H]1[C@@H]2C(=O)OC (some centres undefined)	–	7 µM	6.97 µM	7.65 µM	36.4 µM	19.4 µM	26.5 µM	–	5.3 µM	1.58 µM	1.88 µM	3.11 µM	20.4 µM	0.228 µM	15.8 µM	37.9 µM	6.36 µM	13 µM
O=C(O)/C=C/C(=O)Nc1cccc2c1-c1ccccc1C2=O	–	> 100 µM	> 100 µM	> 55 µM	> 100 µM	> 100 µM	> 100 µM	–	> 91.9 µM	–	–	–	–	–	–	> 100 µM	–	–
